Source: patent US9108944B2, “Androgen receptor modulators and uses thereof” (ARAGON PHARMACEUTICALS, INC., priority 2010, dated 2015)

Each compound was assayed against T1, AR-VP16 (Homo sapiens, UniProt P10275) (assay: AR-VP16 DNA Binding Assay, antagonist mode (HepG2 cells, 0.1 nM R1881)). Conditions: not given.
T1 sequence (P10275 560-920 limits assumed): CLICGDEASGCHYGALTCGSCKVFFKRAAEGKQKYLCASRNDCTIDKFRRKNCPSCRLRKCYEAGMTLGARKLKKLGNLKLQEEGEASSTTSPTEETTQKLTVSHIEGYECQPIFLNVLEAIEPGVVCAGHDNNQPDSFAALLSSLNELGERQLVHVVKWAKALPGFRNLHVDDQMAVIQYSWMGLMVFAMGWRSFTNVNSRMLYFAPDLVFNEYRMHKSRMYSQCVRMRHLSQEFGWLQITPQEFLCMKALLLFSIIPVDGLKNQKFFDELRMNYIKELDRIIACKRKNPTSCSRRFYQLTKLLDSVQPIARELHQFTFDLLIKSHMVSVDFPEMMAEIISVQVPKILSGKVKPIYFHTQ
Format: cell-based
How it was run: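 Transfected HepG2 cells expressing AR-VP16 received serially diluted compound in charcoal-stripped-serum RPMI the day after transfection, with 0.1 nM R1881 (final) added only for antagonist testing. After 48 h, cells were lysed for measurement.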
For `N#Cc1ncc(N2C(=O)C3(CCC3)N(c3ccc(O)c(F)c3)C2=S)cc1C(F)(F)F` [Compound 1, 5-(5-(3-Fluoro-4-hydroxyphenyl)-8-oxo-6-thioxo-5,7-diazaspiro[3.4]octan-7-yl)-3-(trifluoromethyl)picolinonitrile], the IC50 was under 1 µM. Compound `O=C1N(c2ccc3nnc(C(F)(F)F)n3n2)C(=S)N(c2ccc(O)cc2)C12CCC2` [Compound 2, 5-(4-Hydroxyphenyl)-6-thioxo-7-(3-(trifluoromethyl)-[1,2,4]triazolo[4,3-b]pyridazin-6-yl)-5,7-diazaspiro[3.4]octan-8-one] has an IC50 of over 1 µM. `CCOC(=O)c1ccc(N2C(=S)N(c3cnc(C#N)c(C(F)(F)F)c3)C(=O)C23CCC3)cc1F` [Compound 3, Ethyl 4-(7-(6-cyano-5-(trifluoromethyl)pyridin-3-yl)-8-oxo-6-thioxo-5,7-diazaspiro[3.4]octan-5-yl)-2-fluorobenzoate] showed an IC50 of over 1 µM. Work on `CNC(=O)c1ccc(N2C(=S)N(c3cnc(C#N)c(C)c3)C(=O)C23CCC3)cc1F` [Compound 5, 4-(7-(6-Cyano-5-methylpyridin-3-yl)-8-oxo-6-thioxo-5,7-diazaspiro[3.4]octan-5-yl)-2-fluoro-N-methylbenzamide] yielded an IC50 of under 1 µM. In the case of `CNC(=O)c1ccc(N2C(=S)N(c3cnc(C#N)c(C)c3)C(=O)C23CCCC3)cc1F` [Compound 6, 4-(3-(6-Cyano-5-methylpyridin-3-yl)-4-oxo-2-thioxo-1,3-diazaspiro[4.4]nonan-1-yl)-2-fluoro-N-methylbenzamide], the IC50 is reported as under 1 µM. Work on `N#Cc1ncc(N2C(=O)C3(CCC3)N(c3ccc(C(=O)NCc4ccccn4)c(F)c3)C2=S)cc1C(F)(F)F` [Compound 264, 4-(7-(6-Cyano-5-(trifluoromethyl)pyridin-3-yl)-8-oxo-6-thioxo-5,7-diazaspiro[3.4]octan-5-yl)-2-fluoro-N-(pyridin-2-ylmethyl)benzamide] yielded an IC50 of under 1 µM. `N#Cc1ncc(N2C(=O)C3(CCC3)N(c3ccc(C(=O)NCc4cccnc4)c(F)c3)C2=S)cc1C(F)(F)F` [Compound 265, 4-(7-(6-Cyano-5-(trifluoromethyl)pyridin-3-yl)-8-oxo-6-thioxo-5,7-diazaspiro[3.4]octan-5-yl)-2-fluoro-N-(pyridin-3-ylmethyl)benzamide] showed an IC50 of under 1 µM. `N#Cc1ncc(N2C(=O)C3(CCC3)N(c3ccc(C(=O)NC4CCCC4)c(F)c3)C2=S)cc1C(F)(F)F` [Compound 267, 4-(7-(6-Cyano-5-(trifluoromethyl)pyridin-3-yl)-8-oxo-6-thioxo-5,7-diazaspiro[3.4]octan-5-yl)-N-cyclopentyl-2-fluorobenzamide] gave an IC50 of under 1 µM. For `N#Cc1ncc(N2C(=O)C3(CCC3)N(c3ccc(C(=O)NCCCN4CCOCC4)c(F)c3)C2=S)cc1C(F)(F)F` [Compound 268, 4-(7-(6-Cyano-5-(trifluoromethyl)pyridin-3-yl)-8-oxo-6-thioxo-5,7-diazaspiro[3.4]octan-5-yl)-2-fluoro-N-(3-morpholinopropyl)benzamide], the IC50 was under 1 µM. Work on `Cc1cc(N2C(=O)C3(CCC3)N(c3ccc(C(=O)NCc4ccccc4)c(F)c3)C2=S)cnc1C#N` [Compound 273, N-Benzyl-4-(7-(6-cyano-5-methylpyridin-3-yl)-8-oxo-6-thioxo-5,7-diazaspiro[3.4]octan-5-yl)-2-fluorobenzamide] yielded an IC50 of under 1 µM. `CCCNC(=O)c1ccc(N2C(=S)N(c3cnc(C#N)c(C(F)(F)F)c3)C(=O)C23CCC3)cc1F` [Compound 278, 4-(7-(6-Cyano-5-(trifluoromethyl)pyridin-3-yl)-8-oxo-6-thioxo-5,7-diazaspiro[3.4]octan-5-yl)-2-fluoro-N-propylbenzamide] was tested, and the IC50 was under 1 µM. For `C#CCNC(=O)c1ccc(N2C(=S)N(c3cnc(C#N)c(C(F)(F)F)c3)C(=O)C23CCC3)cc1F` [Compound 281, 4-(7-(6-Cyano-5-(trifluoromethyl)pyridin-3-yl)-8-oxo-6-thioxo-5,7-diazaspiro[3.4]octan-5-yl)-2-fluoro-N-(prop-2-yn-1-yl)benzamide], the IC50 was under 1 µM. `CC(C)CCNC(=O)c1ccc(N2C(=S)N(c3cnc(C#N)c(C(F)(F)F)c3)C(=O)C23CCC3)cc1F` [Compound 282, 4-(7-(6-Cyano-5-(trifluoromethyl)pyridin-3-yl)-8-oxo-6-thioxo-5,7-diazaspiro[3.4]octan-5-yl)-2-fluoro-N-isopentylbenzamide] gave an IC50 of under 1 µM. Work on `N#Cc1ncc(N2C(=O)C3(CCC3)N(c3ccc(C(=O)NC4CC4)c(F)c3)C2=S)cc1C(F)(F)F` [Compound 284, 4-(7-(6-Cyano-5-(trifluoromethyl)pyridin-3-yl)-8-oxo-6-thioxo-5,7-diazaspiro[3.4]octan-5-yl)-N-cyclopropyl-2-fluorobenzamide] yielded an IC50 of under 1 µM. Compound `CC(C)(O)CNC(=O)c1ccc(N2C(=S)N(c3cnc(C#N)c(C(F)(F)F)c3)C(=O)C23CCC3)cc1F` [Compound 285, 4-(7-(6-Cyano-5-(trifluoromethyl)pyridin-3-yl)-8-oxo-6-thioxo-5,7-diazaspiro[3.4]octan-5-yl)-2-fluoro-N-(2-hydroxy-2-methylpropyl)benzamide] has an IC50 of over 1 µM. `CC(C)(C)NC(=O)c1ccc(N2C(=S)N(c3cnc(C#N)c(C(F)(F)F)c3)C(=O)C23CCC3)cc1F` [Compound 286, N-(tert-Butyl)-4-(7-(6-cyano-5-(trifluoromethyl)pyridin-3-yl)-8-oxo-6-thioxo-5,7-diazaspiro[3.4]octan-5-yl)-2-fluorobenzamide] gave an IC50 of under 1 µM. `N#Cc1ncc(N2C(=O)C3(CCC3)N(c3ccc(C(=O)NCc4ccccc4Cl)c(F)c3)C2=S)cc1C(F)(F)F` [Compound 287, N-(2-Chlorobenzyl)-4-(7-(6-cyano-5-(trifluoromethyl)pyridin-3-yl)-8-oxo-6-thioxo-5,7-diazaspiro[3.4]octan-5-yl)-2-fluorobenzamide] showed an IC50 of under 1 µM. `Cc1cc(N2C(=O)C3(CCC3)N(c3ccc(C(=O)Nc4ccc(F)cc4)c(F)c3)C2=S)cnc1C#N` [Compound 299, 4-(7-(6-Cyano-5-methylpyridin-3-yl)-8-oxo-6-thioxo-5,7-diazaspiro[3.4]octan-5-yl)-2-fluoro-N-(4-fluorophenyl)benzamide] showed an IC50 of under 1 µM. For `Cc1cc(N2C(=O)C3(CCC3)N(c3ccc(C(=O)Nc4ncco4)c(F)c3)C2=S)cnc1C#N` [Compound 300, 4-(7-(6-cyano-5-methylpyridin-3-yl)-8-oxo-6-thioxo-5,7-diazaspiro[3.4]octan-5-yl)-2-fluoro-N-(oxazol-2-yl)benzamide], the IC50 was under 1 µM. `Cc1cc(N2C(=O)C3(CCC3)N(c3ccc(C(=O)Nc4nccs4)c(F)c3)C2=S)cnc1C#N` [Compound 301, 4-(7-(6-Cyano-5-methylpyridin-3-yl)-8-oxo-6-thioxo-5,7-diazaspiro[3.4]octan-5-yl)-2-fluoro-N-(thiazol-2-yl)benzamide] showed an IC50 of under 1 µM. Work on `Cc1cc(N2C(=O)C3(CCC3)N(c3ccc(C(=O)Nc4ccnn4C)c(F)c3)C2=S)cnc1C#N` [Compound 302, 4-(7-(6-Cyano-5-methylpyridin-3-yl)-8-oxo-6-thioxo-5,7-diazaspiro[3.4]octan-5-yl)-2-fluoro-N-(1-methyl-1H-pyrazol-5-yl)benzamide] yielded an IC50 of under 1 µM. Compound `Cc1ccc(NC(=O)c2ccc(N3C(=S)N(c4cnc(C#N)c(C)c4)C(=O)C34CCC4)cc2F)cn1` [Compound 304, 4-(7-(6-Cyano-5-methylpyridin-3-yl)-8-oxo-6-thioxo-5,7-diazaspiro[3.4]octan-5-yl)-2-fluoro-N-(6-methylpyridin-3-yl)benzamide] has an IC50 of under 1 µM. `CN1CCN(C(=O)COc2ccc(N3C(=S)N(c4cnc(C#N)c(C(F)(F)F)c4)C(=O)C34CCC4)cc2F)CC1` [Compound 309, 5-(5-(3-Fluoro-4-(2-(4-methylpiperazin-1-yl)-2-oxoethoxy)phenyl)-8-oxo-6-thioxo-5,7-diazaspiro[3.4]octan-7-yl)-3-(trifluoromethyl)picolinonitrile] showed an IC50 of under 1 µM. In the case of `Cc1cc(N2C(=O)C3(CCC3)N(c3ccc(C(=O)NC4CCOCC4)c(F)c3)C2=S)cnc1C#N` [Compound 310, 4-(7-(6-Cyano-5-methylpyridin-3-yl)-8-oxo-6-thioxo-5,7-diazaspiro[3.4]octan-5-yl)-2-fluoro-N-(tetrahydro-2H-pyran-4-yl)benzamide], the IC50 is reported as over 1 µM.

What follows are compounds tested against T1, AR-VP16 (assay: AR-VP16 DNA Binding Assay, agonist mode (HepG2 cells)). Conditions: Emax >20x DMSO control = agonist.
Format: cell-based
For `N#Cc1ncc(N2C(=O)C3(CCC3)N(c3ccc(O)c(F)c3)C2=S)cc1C(F)(F)F` [Compound 1, 5-(5-(3-Fluoro-4-hydroxyphenyl)-8-oxo-6-thioxo-5,7-diazaspiro[3.4]octan-7-yl)-3-(trifluoromethyl)picolinonitrile], the “ARVP16 DNA Binding Assay (Agonist mode): Agonist?” value (“ARVP16 DNA Binding Assay” for short) was “No (Agonist defined as a compound whose Emax in the ARVP16 DNA Binding Assay (Agonist mode) is >20x DMSO control)”. For `O=C1N(c2ccc3nnc(C(F)(F)F)n3n2)C(=S)N(c2ccc(O)cc2)C12CCC2` [Compound 2, 5-(4-Hydroxyphenyl)-6-thioxo-7-(3-(trifluoromethyl)-[1,2,4]triazolo[4,3-b]pyridazin-6-yl)-5,7-diazaspiro[3.4]octan-8-one], the “ARVP16 DNA Binding Assay” value was “No (Agonist defined as a compound whose Emax in the ARVP16 DNA Binding Assay (Agonist mode) is >20x DMSO control)”. In the case of `CCOC(=O)c1ccc(N2C(=S)N(c3cnc(C#N)c(C(F)(F)F)c3)C(=O)C23CCC3)cc1F` [Compound 3, Ethyl 4-(7-(6-cyano-5-(trifluoromethyl)pyridin-3-yl)-8-oxo-6-thioxo-5,7-diazaspiro[3.4]octan-5-yl)-2-fluorobenzoate], the “ARVP16 DNA Binding Assay” value is reported as “No (Agonist defined as a compound whose Emax in the ARVP16 DNA Binding Assay (Agonist mode) is >20x DMSO control)”. With `CNC(=O)c1ccc(N2C(=S)N(c3cnc(C#N)c(C)c3)C(=O)C23CCC3)cc1F` [Compound 5, 4-(7-(6-Cyano-5-methylpyridin-3-yl)-8-oxo-6-thioxo-5,7-diazaspiro[3.4]octan-5-yl)-2-fluoro-N-methylbenzamide] the “ARVP16 DNA Binding Assay” value was “No (Agonist defined as a compound whose Emax in the ARVP16 DNA Binding Assay (Agonist mode) is >20x DMSO control)”. With `CNC(=O)c1ccc(N2C(=S)N(c3cnc(C#N)c(C)c3)C(=O)C23CCCC3)cc1F` [Compound 6, 4-(3-(6-Cyano-5-methylpyridin-3-yl)-4-oxo-2-thioxo-1,3-diazaspiro[4.4]nonan-1-yl)-2-fluoro-N-methylbenzamide] the “ARVP16 DNA Binding Assay” value was “No (Agonist defined as a compound whose Emax in the ARVP16 DNA Binding Assay (Agonist mode) is >20x DMSO control)”. In the case of `CN1CCC(Oc2ccc(N3C(=S)N(c4cnc(C#N)c(C(F)(F)F)c4)C(=O)C34CCC4)cc2)CC1` [Compound 129, 5-(5-(4-((1-Methylpiperidin-4-yl)oxy)phenyl)-8-oxo-6-thioxo-5,7-diazaspiro[3.4]octan-7-yl)-3-(trifluoromethyl)picolinonitrile], the “ARVP16 DNA Binding Assay” value is reported as “No (Agonist defined as a compound whose Emax in the ARVP16 DNA Binding Assay (Agonist mode) is >20x DMSO control)”.
